Test results as given in US20250008950A1, “BIOCIDE COMPOSITIONS” (BASF SE, priority 2021, published 2025).

Experiment: Solubility of biocide in solvent system (A1+A2)
Format: physicochemical
Protocol: General method of preparing emulsifiable composition (C): Component (A1) and component (A2) were mixed and heated to a temperature in the range of 20° C. to 100° C. to obtain a solution. Respective amount of the biocide was charged to the above solution at a temperature in the range of 20° C. to 100° C. to obtain the solution containing biocide. Emulsifier and other optional ingredients were charged o to the above biocide containing solution to obtain the emulsifiable composition (C).

Structure (SMILES): CO/C=C(/C(=O)OC)c1ccccc1Oc1cc(Oc2ccccc2C#N)ncn1 [Azoxystrobin]
- Solubility wt. % in total (C) (solvent system Acetophenone (A1) / 2-Methoxy-4-Methylphenol (A2), molar ratio A1:A2 1:1): 27 wt. %
- Solubility wt. % in total (C) (solvent system Acetophenone (A1) / 2-sec-Butylphenol (A2), molar ratio A1:A2 1:1): 32 wt. %
- Solubility wt. % in total (C) (solvent system Acetophenone (A1) / Phenyl acetic acid (A2), molar ratio A1:A2 2:1): 25 wt. %
- Solubility wt. % in total (C) (solvent system Acetophenone (A1) / Thymol (A2), molar ratio A1:A2 1:1): 28 wt. %
